One data set is described as follows: DPPH scavenging assay. As to conditions: for DPPH Radicals, % of Control: compounds at 100 µM, 30 min, absorbance 520 nm, mean ± SEM. As to the method: The compounds were dissolved in DMSO, and the solutions (120 µL) were dispensed into wells of a 96-well microplate. In all, 30 µL of the DPPH (Sigma-Aldrich, Steinheim, Germany) solution in MeOH (1.5 × 10^−4 M) was added to each well. The concentrations of the compounds in mixture were 10 and 100 µM. Pure DMSO was used as a control. The ascorbic acid was used as a positive control. The mixture was shaken and left to stand for 30 min, and the absorbance of the resulting solution was measured at 520 nm with a microplate reader MultiscanFC (ThermoLabsystems Inc., Beverly, MA, USA). The radical scavenging activity of all compounds at 100 µM was presented as a percent of the DMSO data.

A further data set concerns CoCl2-treated H9c2 cells. Nature of the data set: Cardioprotective activity in CoCl2-mimic hypoxia. As to conditions: MTT. It is filed as cell-based, rat. The protocol: The H9c2 cells were treated with a dH2O-solution of CoCl2 at a concentration of 500 µM for 2 h. Then, compounds at a concentration of 10 µM were added for 46 h. The viability of the H9c2 cells was measured by an MTT assay.

The subject of data set [1] is human prostate cancer PC-3 cells. Nature of the data set: Cell viability (MTT) assay, cytotoxic activity toward PC-3 cells. It is filed as cell-based. As to conditions: 48 h; for IC50: Homo sapiens, PC-3 cells; for decrease of PC-3 cell viability: concentration of 100 µM. As to the method:
(§1) The human cancer PC-3 cells were purchased from ATCC (Manassas, VA, USA). The rat cardiomyocytes H9c2 cells were kindly provided by Prof. Dr. Gunhild von Amsberg from Martini-Klinik Prostate Cancer Center, University Hospital Hamburg-Eppendorf, Hamburg, Germany.
(§2) The PC-3 and H9c2 cells were seeded at concentrations of 5 × 10^3 cell/well and 3 × 10^3 cell/well, respectively, and the experiments were started after 24 h. The compounds at concentrations up to 100 µM were added into the wells for 48 h, and the viability of the cells was measured by an MTT (3-(4,5-dimethylthiazol-2-yl)-2,5-diphenyltetrazolium bromide) assay, which was performed according to the manufacturer’s instructions (Sigma-Aldrich, Munich, Germany). All compounds were diisolved with DMSO so that the final concentration of DMSO in the cell culture was not more than 1%. Moreover, DMSO was used as a control.
(§3) The results were presented as a percent of the control data, and the concentration of the cell viability inhibition on 50% (IC50) was calculated.

Data set [2] deals with rat normal cardiomyocytes H9c2. Nature of the data set: Cell viability (MTT) assay, cytotoxic activity toward H9c2 cells. The note with it: 48 h. It is filed as cell-based. The protocol: as §1, §2, §3
Data set [3] relates to rotenone-treated H9c2 cells. The data set can be described thus: Cardioprotective activity against rotenone-induced toxicity. The class given is cell-based, rat. The protocol: The H9c2 cells were treated with rotenone (0.1% DMSO solution) at a concentration of 10 µM for 1 h. Then, compounds at a concentration of 10 µM were added for 23 h. The viability of the H9c2 cells was measured by an MTT assay.

Some results are limits rather than exact numbers.

As to `O=C1O[C@H]([C@@H](O)CO)C(O)=C1O` [Ascorbic acid, ascorbic acid, reference compound], the “DPPH Radicals, % of Control” value in the data set “DPPH scavenging assay” was 10.5 ± 3.2 % of Control.
As to `[Cl-].[Cl-].[Co+2]` [CoCl2, cobalt chloride (II), reference compound], the “decrease of viability of H9c2 cells by CoCl2 treatment” value in the data set with CoCl2-treated H9c2 cells (CoCl2 500 µM) was determined as 54.1%.
For the molecule `COC1=C(OC)[C@@H](O)[C@](C)(O)[C@@H](C)C1=O` [Compound 1, lopouzanone A], in data set [1], the IC50 is over 100 µM and the “decrease of PC-3 cell viability” value is on record as 27–32%. This molecule also gave an IC50 in data set [2] of over 100 µM. Also, the “DPPH Radicals, % of Control” value in “DPPH scavenging assay” was 93.8 ± 0.5 % of Control.
As for `COC1=C(OC)C(O)C(C)(O)C(C)C1=O` (centres unmarked) [Compound 2, lopouzanone B], the IC50 in data set [1] and in data set [2] was over 100 µM throughout. Moreover, in data set [1], the “decrease of PC-3 cell viability” value is reported as 27–32%. Moreover, the “DPPH Radicals, % of Control” value in “DPPH scavenging assay” is listed as 100.2 ± 1.0 % of Control.
With `COC1=C(OC)C(=O)C(C)C(C)C1=O` (centres unmarked) [Compound 3, gliorosein], the values for the IC50 in data set [1] and in data set [2] were 58.9 ± 1.5 µM and over 100 µM, respectively. Also, the viability at 10 µM came to 16.6% in data set [3] (Rattus norvegicus, H9c2, read-out: increase of viability of rotenone-treated H9c2 cells) and 23.5% with CoCl2-treated H9c2 cells (Rattus norvegicus, H9c2, compound at 10 µM for 46 h after CoCl2 500 µM for 2 h, read-out: increase of viability of CoCl2-treated H9c2 cells). The “DPPH Radicals, % of Control” value in “DPPH scavenging assay” was 86.1 ± 1.8 % of Control. Also, in “DPPH scavenging assay” (concentration of 100 µM), the “decrease of the amount of DPPH radical” value was 13.9%.
`C[C@@H]1C/C=C/C(=O)C/C=C/[C@H](O)CC(=O)O1` [Compound 4, balticolid]: the IC50 in data set [1] was 38.9 ± 1.9 µM; in data set [2] it was over 100 µM. Further, the “DPPH Radicals, % of Control” value in “DPPH scavenging assay” was 98.6 ± 3.4 % of Control.
Regarding `C[C@@H]1C/C=C/[C@@H](O)C/C=C/[C@@H](O)CC(=O)O1` [Compound 5, dendrodolide G], in data set [1], the IC50 is over 100 µM and the “decrease of PC-3 cell viability” value is 27–32%. The molecule also showed an IC50 in data set [2] of over 100 µM. Also, the “DPPH Radicals, % of Control” value in “DPPH scavenging assay” was 98.9 ± 1.4 % of Control.
As to `C/C=C/C=C/C=C/[C@@H]1C[C@@H](O)[C@H](O)[C@H](O)[C@@H]1CO` [Compound 8, dendrodochol B], in data set [1], the IC50 was over 100 µM and the “decrease of PC-3 cell viability” value is reported as 27–32%. For the same molecule, the IC50 in data set [2] is over 100 µM. In “DPPH scavenging assay”, the “DPPH Radicals, % of Control” value was 99.4 ± 3.3 % of Control.
As for `C/C=C/C=C/C=C/[C@@H]1C[C@@H](OC(C)=O)[C@H](O)[C@H](O)[C@@H]1CO` [Compound 9, 1-O-acetyl dendrodochol B], in data set [1], the IC50 was over 100 µM and the “decrease of PC-3 cell viability” value is 27–32%. For the same molecule, the IC50 in data set [2] was over 100 µM. In the data set “DPPH scavenging assay”, the “DPPH Radicals, % of Control” value was 102.7 ± 1.8 % of Control.
`C=C(C)[C@H]1Cc2c(ccc3c2O[C@@H]2COc4cc(OC)c(OC)cc4[C@@H]2C3=O)O1` [rotenone, reference compound]: in data set [3] (rotenone 10 µM, MTT), the “decrease of viability of H9c2 cells by rotenone treatment” value amounted to 32.1%.
